Measured values from patent publication US6479531B1, “Gastrin and cholecystokinin receptor ligands” (James Black Foundation Limited, priority 1998, dated 2002).

Experiments:
CCKB receptor = target: T1, CCKB receptor (Mus musculus, UniProt P56481); assay: CCKB receptor radioligand binding assay in mouse cortical membranes; details: [125I]-CCK8(S) 200 pM, 150 min at 21±3°, read-out: CCKB pKi (converted)
T1 construct: The whole brains from male mice (CD1 22-25 g; Charles River) were removed; from tissue; host or cells: cerebral cortex membranes of male CD1 mice
T1 sequence (P56481 1-453): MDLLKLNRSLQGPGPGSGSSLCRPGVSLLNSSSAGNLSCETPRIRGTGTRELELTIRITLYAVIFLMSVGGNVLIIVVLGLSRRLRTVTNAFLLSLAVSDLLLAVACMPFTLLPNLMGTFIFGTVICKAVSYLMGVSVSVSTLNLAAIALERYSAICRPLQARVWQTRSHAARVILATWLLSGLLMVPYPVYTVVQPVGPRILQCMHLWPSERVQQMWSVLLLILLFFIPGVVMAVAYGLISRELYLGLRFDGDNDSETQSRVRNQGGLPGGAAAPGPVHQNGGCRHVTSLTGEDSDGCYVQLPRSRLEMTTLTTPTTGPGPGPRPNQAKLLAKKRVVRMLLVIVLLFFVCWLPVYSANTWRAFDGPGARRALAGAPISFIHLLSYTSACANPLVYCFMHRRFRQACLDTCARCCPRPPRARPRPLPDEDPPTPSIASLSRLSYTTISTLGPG
Summary of the method: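 Bound radioactivity was gamma-counted after rapid GF/B filtration and cold 50 mM Tris-HCl (pH 7.4) washes. The tissue was cerebral cortex from male CD1 mice, prepared as twice-centrifuged membranes in pH 7.2 HEPES/NaCl/KCl/MgCl2/EDTA buffer with bacitracin at 20 mg/ml original wet weight.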

gastrin receptor = target: T2, gastrin receptor (Rattus norvegicus, UniProt P30553); assay: gastrin antagonist activity in immature rat stomach assay (pentagastrin dose-response, acid secretion); details: isolated immature rat stomach, cumulative pentagastrin dose-response curves, read-out: Gastrin pKb (converted)
T2 construct: The stomach was excised and flushed with ca. 1 ml of unbuffered physiological saline solution; from tissue; host or cells: isolated whole stomach of immature rats (ca. 21 days old)
T2 sequence (P30553 1-452): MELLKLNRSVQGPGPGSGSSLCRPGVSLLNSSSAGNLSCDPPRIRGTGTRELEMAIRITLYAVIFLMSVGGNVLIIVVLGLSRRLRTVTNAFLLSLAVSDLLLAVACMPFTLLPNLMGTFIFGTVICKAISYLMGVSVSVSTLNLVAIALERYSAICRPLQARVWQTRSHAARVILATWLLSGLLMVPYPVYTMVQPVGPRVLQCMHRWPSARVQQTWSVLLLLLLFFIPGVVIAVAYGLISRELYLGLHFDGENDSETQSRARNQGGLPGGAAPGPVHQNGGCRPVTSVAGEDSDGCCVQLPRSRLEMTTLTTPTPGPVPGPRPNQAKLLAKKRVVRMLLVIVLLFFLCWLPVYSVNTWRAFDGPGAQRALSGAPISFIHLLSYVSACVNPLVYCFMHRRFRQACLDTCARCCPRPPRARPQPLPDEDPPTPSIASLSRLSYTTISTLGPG
Summary of the method: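 Gastrin antagonism was measured as the effect on cumulative pentagastrin dose-response curves of acid output, recorded by pH electrode in the perfusate of an excised immature rat stomach (ca. 21 days old). Test compound was placed in the serosal bath (37°, 3×10^−8 M 5-methylfurmethide) 60 min before pentagastrin.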

| Ki (CCKB receptor) | Kb (gastrin receptor) | Structure (SMILES) |
| --- | --- | --- |
| 38.9 nM | 81.3 nM | Cc1ccc(NC(=O)c2nc(-c3ccccc3C)n(C)c2CCC23CC4CC(CC(C4)C2)C3)cc1C(=O)O [Example 161, 5-{[5-(2-Adamantan-1-yl-ethyl)-1-methyl-2-o-tolyl-1H-imidazole-4-carbonyl]-amino}-2-methyl-benzoic Acid] |
| 1820 nM | 123 nM | Cc1ccccc1-c1nc(C(=O)Nc2cccc(C(=O)O)c2)c(CC2CCCCCC2)[nH]1 [Example 165, 3-[(5-Cycloheptylmethyl-2-o-tolyl-1H-imidazole-4-carbonyl)-amino]-benzoic Acid] |
| 135 nM | 12.9 nM | O=C(O)c1cccc(NC(=O)c2nc(C3CCCCC3)[nH]c2CCC2CCCCCC2)c1 [Example 166, 3-{[5-(2-Cycloheptyl-ethyl)-2-cyclohexyl-1H-imidazole-4-carbonyl]-amino}-benzoic Acid] |
| 28.2 nM | 13.8 nM | Cc1ccc(NC(=O)c2nc(C3CCCCC3)[nH]c2CCC2CCCCCC2)cc1C(=O)O [Example 167, 5-{[5-(2-Cycloheptyl-ethyl)-2-cyclohexyl-1H-imidazole-4-carbonyl]-amino}-2-methyl-benzoic Acid] |
| 245 nM | 64.6 nM | O=C(O)c1cccc(NC(=O)c2nc(C3CCCCC3)[nH]c2CCC2CCCCC2)c1 [Example 168, 3-{[2-Cyclohexyl-5-(2-cyclohexyl-ethyl)-1H-imidazole-4-carbonyl]-amino}-benzoic Acid] |
| 132 nM | 75.9 nM | Cc1ccc(NC(=O)c2nc(-c3ccccc3C)[nH]c2CCC2CCCCC2)cc1C(=O)O [Example 169, 5-{[5-(2-Cyclohexyl-ethyl)-2-o-tolyl-1H-imidazole-4-carbonyl]-amino}-2-methyl-benzoic Acid] |
| 141 nM | 38.9 nM | O=C(O)c1cccc(NC(=O)c2nc(C3CCCCC3)[nH]c2CCCC23CC4CC(CC(C4)C2)C3)c1 [Example 171, 3-{[5-(3-Adamantan-1-yl-propyl)-2-cyclohexyl-1H-imidazole-4-carbonyl]-amino}-benzoic Acid] |
| 21.4 nM | 3.72 nM | O=C(O)c1cccc(NC(=O)c2nc(C3CCCCC3)[nH]c2CCC2C3CC4CC(C3)CC2C4)c1 (centres unmarked) [Example 172, 3-{[5-(2-Adamantan-2-yl-ethyl)-2-cyclohexyl-1H-imidazole-4-carbonyl]-amino}-benzoic Acid] |
| 6.17 nM | 4.79 nM | Cc1ccc(NC(=O)c2nc(C3CCCCC3)[nH]c2CCC2C3CC4CC(C3)CC2C4)cc1C(=O)O (centres unmarked) [Example 173, 5-{[5-(2-Adamantan-2-yl-ethyl)-2-cyclohexyl-1H-imidazole-4-carbonyl]-amino}-2-methyl-benzoic Acid] |
| 251 nM | 204 nM | CC12CC3CC(C)(C1)CC(CCc1[nH]c(C4CCCCC4)nc1C(=O)Nc1cccc(C(=O)O)c1)(C3)C2 [Example 174, 3-({2-Cyclohexyl-5-[2-(3,5-dimethyl-adamantan-1-yl)-ethyl]-1H-imidazole-4-carbonyl}-amino)-benzoic Acid] |
| 603 nM | 151 nM | O=C(O)c1cccc(NC(=O)c2nc(-c3cccnc3)[nH]c2CCC23CC4CC(CC(C4)C2)C3)c1 [Example 177, 3-{[5-(2-Adamantan-1-yl-ethyl)-2-pyridine-3-yl-1H-imidazole-4-carbonyl]-amino}-benzoic Acid] |
| 245 nM | 166 nM | O=C(O)c1cccc(NC(=O)c2nc(-c3ccccn3)[nH]c2CCC23CC4CC(CC(C4)C2)C3)c1 [Example 178, 3-{[5-(2-Adamantan-1-yl-ethyl)-2-pyridine-2-yl-1H-imidazole-4-carbonyl]-amino}-benzoic Acid] |
| 40.7 nM | 46.8 nM | Cc1ccc(NC(=O)c2nc(-c3ccccn3)[nH]c2CCC23CC4CC(CC(C4)C2)C3)cc1C(=O)O [Example 179, 5-{[5-(2-Adamantan-1-yl-ethyl)-2-pyridine-2-yl-1H-imidazole-4-carbonyl]-amino}-2methyl-benzoic Acid] |
